For the experiment, the system named is TNF synthesis in human PBMC. In words: Human PBMC TNF Synthesis Assay. The class given is cell-based. The conditions noted are these: LPS-stimulated human PBMC, overnight incubation, TNF ELISA; read-out: TNF inhib. The procedure: Human PBMC TNF Synthesis Assay
Human PBMC were obtained by from a healthy human donor leuko pak. Typically, all donors were pre-screened for STD, HIV and have been given a physical by a physician. One to two ampoules were thawed at 37° C. and then resuspended in 45 to 85 mL of RPMI+10% FBS to a final concentration of 2.5×10^6 cells/mL. Resuspended cells were filtered to remove any large clumps.
Prepare compounds for addition to cells: All compounds were DMSO stocks at 20 mM. Working stock for cell testing were prepared as 4× concentrated material in RPMI+10% FBS. Compounds were added to a polypropylene block and then diluted with the appropriate amount of RPMI+10% FBS. Typically 2.6 μL of 20 mM stock was diluted to 650 μL final volume to yield an 80 μM starting concentration in the stocks. RPMI was added to DMSO stock by pipetting into the tube or block. The compounds were then serial diluted with RPMI+10% FBS. The final DMSO concentrations were not greater than 0.5% in the assay.
Compounds were added to the cells as 4× working stock. 50 μL of compound was prepared above is added to the cells and re-equilibrated in a humidified 5% CO2 incubator at 37° C. for 30 minutes.
A stock of LPS was prepared using RPMI+10% FBS. To prepare the stock, 2.8 μL of LPS (5 mg/mL; Sigma Cat #L3024) was added to 35 mL of media. 50 μL of the LPS in media was added to the cells. Control cultures without LPS received only RPMI+10% FBS. After an overnight incubation at 37° C., the cell culture supernatant was harvested and stored in a polypropylene 96 well plate.
Samples were tested for TNF as per the manufacturer's instructions (TNF ELISA; R&D Systems, Cat #DY210). The samples were serially diluted with PBS+1% BSA to the appropriate dilution condition for the cell prep, typically a 1:4 or 1:6 dilution.
On the technique in general: An ELISA detects its analyte on a solid surface through an enzyme-linked reagent.
Consider `CCn1c(=O)c2cnc3c(OC)cccc3c2n(C2CCCC2)c1=O` [Example 1, 1-cyclopentyl-3-ethyl-7-methoxy-1H-pyrimido[5,4-c]quinoline-2,4-dione], for which the IC50 stood at 180 nM.
Next, `CCn1c(=O)c2cnc3c(OC)cccc3c2n(-c2ccc(OC)c(OC)c2)c1=O` [Example 4, 1-(3,4-Dimethoxy-phenyl)-3-ethyl-7-methoxy-1H-pyrimido[5,4-c]quinoline-2,4-dione]: 14200 nM; `COc1cccc2c1ncc1c(=O)n(C(C)C)c(=O)n(C3CCCC3)c12` [Example 5, 1-Cyclopentyl-3-isopropyl-7-methoxy-1H-pyrimido[5,4-c]quinoline-2,4-dione]: 270 nM.
Consider `COc1cccc2c1ncc1c(=O)n(-c3cccs3)c(=O)n(C3CCCC3)c12` [Example 10, 1-Cyclopentyl-7-methoxy-3-thiophen-2-yl-1H-pyrimido[5,4-c]quinoline-2,4-dione], for which the IC50 is 410 nM.
Next, `CCCn1c(=O)n(CC)c(=O)c2cnc3c(OC)cccc3c21` [Example 16, 3-Ethyl-7-methoxy-1-propyl-1H-pyrimido[5,4-c]quinoline-2,4-dione]: 680 nM; `CCCCn1c(=O)n(CC)c(=O)c2cnc3c(OC)cccc3c21` [Example 17, 1-Butyl-3-ethyl-7-methoxy-1H-pyrimido[5,4-c]quinoline-2,4-dione]: 390 nM; `CCn1c(=O)c2cnc3c(OC)cccc3c2n(CC(C)C)c1=O` [Example 18, 3-Ethyl-1-isobutyl-7-methoxy-1H-pyrimido[5,4-c]quinoline-2,4-dione]: 1100 nM.
To `CCn1c(=O)c2cnc3c(OC)cc(Cl)cc3c2n(C2CCCC2)c1=O` [Example 28, 9-Chloro-1-cyclopentyl-3-ethyl-7-methoxy-1H-pyrimido[5,4-c]quinoline-2,4-dione] belongs 3500 nM; to `CCn1c(=O)c2cnc3c(Cl)cccc3c2n(C2CCCC2)c1=O` [Example 30, 7-Chloro-1-cyclopentyl-3-ethyl-1H-pyrimido[5,4-c]quinoline-2,4-dione], 2500 nM.
As for `CCCc1cccc2c1ncc1c(=O)n(CC)c(=O)n(C3CCCC3)c12` [Example 32, 1-Cyclopentyl-3-ethyl-7-propyl-1H-pyrimido[5,4-c]quinoline-2,4-dione], the IC50 turned out to be 2600 nM.
To `CCn1c(=O)c2cnc3c(C(C)C)cccc3c2n(C2CCCC2)c1=O` [Example 33, 1-Cyclopentyl-3-ethyl-7-isopropyl-1H-pyrimido[5,4-c]quinoline-2,4-dione] belongs 20000 nM; to `CCn1c(=O)c2cnc3c(OC(F)(F)F)cccc3c2n(C2CCCC2)c1=O` [Example 34, 1-Cyclopentyl-3-ethyl-7-trifluoromethoxy-1H-pyrimido[5,4-c]quinoline-2,4-dione], 3600 nM; to `CCn1c(=O)c2cnc3c(OC)cccc3c2n(C(C)C)c1=O` [Example 37, 3-Ethyl-1-isopropyl-7-methoxy-1H-pyrimido[5,4-c]quinoline-2,4-dione], 20000 nM.
Next, `CCC(C)n1c(=O)c2cnc3c(OC)cccc3c2n(C2CCCC2)c1=O` (stereo not shown) [Example 38, 3-sec-Butyl-1-cyclopentyl-7-methoxy-1H-pyrimido[5,4-c]quinoline-2,4-dione]: 450 nM; `COc1cccc2c1ncc1c(=O)n(-c3ccccc3)c(=O)n(C3CCCC3)c12` [Example 39, 1-Cyclopentyl-7-methoxy-3-phenyl-1H-pyrimido[5,4-c]quinoline-2,4-dione]: 1300 nM.
To `CCn1c(=O)c2cnc3c(C)cccc3c2n(C2CCCC2)c1=O` [Example 41, 1-Cyclopentyl-3-ethyl-7-methyl-1H-pyrimido[5,4-c]quinoline-2,4-dione] belongs 500 nM.
For the compound `CCn1c(=O)c2cnc3c(OC)cccc3c2n(C2CCC(C)CC2)c1=O` (stereo not shown) [Example 45, 3-Ethyl-7-methoxy-1-(4-methyl-cyclohexyl)-1H-pyrimido[5,4-c]quinoline-2,4-dione], the IC50 turned out to be 200 nM.
In the case of `CCOC(=O)Cn1c(=O)c2cnc3c(OC)cccc3c2n(C2CCCC2)c1=O` [Example 46, (1-Cyclopentyl-7-methoxy-2,4-dioxo-1,4-dihydro-2H-pyrimido[5,4-c]quinolin-3-yl)-acetic acid ethyl ester], the IC50 worked out at 1000 nM.
Next, `COc1cccc2c1ncc1c(=O)n(C)c(=O)n(C3CCCC3)c12` [Example 48, 1-Cyclopentyl-7-methoxy-3-methyl-1H-pyrimido[5,4-c]quinoline-2,4-dione]: 1400 nM.
To `COc1cccc2c1ncc1c(=O)n(-c3cc(C)cs3)c(=O)n(C3CCCC3)c12` [Example 51, 1-Cyclopentyl-7-methoxy-3-(4-methyl-thiophen-2-yl)-1H-pyrimido[5,4-c]quinoline-2,4-dione] belongs 30 nM; to `COc1cccc2c1ncc1c(=O)n(-c3cccc(C)c3)c(=O)n(C3CCCC3)c12` [Example 54, 1-Cyclopentyl-7-methoxy-3-m-tolyl-1H-pyrimido[5,4-c]quinoline-2,4-dione], 6 nM; to `COc1cccc2c1ncc1c(=O)n(-c3ccc(C)cc3)c(=O)n(C3CCCC3)c12` [Example 55, 1-Cyclopentyl-7-methoxy-3-p-tolyl-1H-pyrimido[5,4-c]quinoline-2,4-dione], 163 nM.
Next, `COc1cccc2c1ncc1c(=O)n(-c3cccc(Cl)c3)c(=O)n(C3CCC(C)CC3)c12` (stereo not shown) [Example 72, 3-(3-Chloro-phenyl)-7-methoxy-1-(4-methyl-cyclohexyl)-1H-pyrimido[5,4-c]quinoline-2,4-dione]: 4 nM.
For the compound `COc1cccc2c1ncc1c(=O)n(-c3cccc(Cl)c3)c(=O)n(C3CCCC3)c12` [Example 73, 3-(3-Chloro-phenyl)-1-cyclopentyl-7-methoxy-1H-pyrimido[5,4-c]quinoline-2,4-dione], the IC50 turned out to be 9 nM.
Turning to `CCc1cccc(-n2c(=O)c3cnc4c(OC)cccc4c3n(C3CCCC3)c2=O)c1` [Example 75, 1-Cyclopentyl-3-(3-ethyl-phenyl)-7-methoxy-1H-pyrimido[5,4-c]quinoline-2,4-dione], the IC50 came out at 6 nM.
Next, `COc1cccc2c1ncc1c(=O)n(-c3cccc(C)c3)c(=O)n(C3CCC(C)CC3)c12` (stereo not shown) [Example 78, 7-Methoxy-1-(4-methyl-cyclohexyl)-3-m-tolyl-1H-pyrimido[5,4-c]quinoline-2,4-dione]: 1 nM; `COc1cccc2c1ncc1c(=O)n(-c3cccc(Cl)c3)c(=O)n(C3CCC(F)(F)CC3)c12` [Example 87, 3-(3-Chloro-phenyl)-1-(4,4-difluoro-cyclohexyl)-7-methoxy-1H-pyrimido[5,4-c]quinoline-2,4-dione]: 2 nM; `COc1cccc2c1ncc1c(=O)n(-c3cccc(Cl)c3)c(=O)n(C3CCN(C(=O)OC(C)(C)C)CC3)c12` [Example 88, 4-[3-(3-Chloro-phenyl)-7-methoxy-2,4-dioxo-3,4-dihydro-2H-pyrimido[5,4-c]quinolin-1-yl]-piperidine-1-carboxylic acid tert-butyl ester]: 1 nM.
To `COc1cccc2c1ncc1c(=O)n(-c3cccc(Cl)c3)c(=O)n(C3CCNCC3)c12` [Example 89, 3-(3-Chloro-phenyl)-7-methoxy-1-piperidin-4-yl-1H-pyrimido[5,4-c]quinoline-2,4-dione.dihydrochlode] belongs 5 nM; to `COc1cccc2c1ncc1c(=O)n(-c3cccc(Cl)c3)c(=O)n(C3CCN(C(C)=O)CC3)c12` [Example 90, 1-(1-Acetyl-piperidin-4-yl)-3-(3-chloro-phenyl)-7-methoxy-1H-pyrimido[5,4-c]quinoline-2,4-dione], 2 nM.
To `COc1cccc2c1ncc1c(=O)n(-c3cccc(Cl)c3)c(=O)n(C3CCN(C(=O)c4ccccc4)CC3)c12` [Example 91, 1-(1-Benzoyl-piperidin-4-yl)-3-(3-chloro-phenyl)-7-methoxy-1H-pyrimido[5,4-c]quinoline-2,4-dione] belongs 1 nM; to `COc1cccc2c1ncc1c(=O)n(-c3cccc(Cl)c3)c(=O)n(C3CCN(S(=O)(=O)C(C)C)CC3)c12` [Example 93, 3-(3-Chloro-phenyl)-7-methoxy-1-[1-(propane-2-sulfonyl)-piperidin-4-yl]-1H-pyrimido[5,4-c]quinoline-2,4-dione], 0.4 nM.
With `COc1cccc2c1ncc1c(=O)n(-c3cccc(Cl)c3)c(=O)n(C3CCN(S(=O)(=O)N(C)C)CC3)c12` [Example 94, 4-[3-(3-Chloro-phenyl)-7-methoxy-2,4-dioxo-3,4-dihydro-2H-pyrimido[5,4-c]quinolin-1-yl]-piperidine-1-sulfonic acid dimethylamide], the IC50 was 0.4 nM.
To `COc1cccc2c1ncc1c(=O)n(-c3cccc(Cl)c3)c(=O)n(C3CCN(S(=O)(=O)c4ccccc4)CC3)c12` [Example 95, 1-(1-Benzenesulfonyl-piperidin-4-yl)-3-(3-chloro-phenyl)-7-methoxy-1H-pyrimido[5,4-c]quinoline-2,4-dione] belongs 1 nM.
